Measured values from PMC5775428, “Towards an experimental classification system for membrane active peptides” (Scientific Reports, 2018).
Where two headings read alike, the source gives them in different places.

Key:
Pseudomonas aeruginosa = test system: Pseudomonas aeruginosa
Experimental: (§1) Antimicrobial activity was tested against three categories of human and plant pathogenic microorganisms: Gram-positive (Bacillus subtilis, Bacillus cereus, Staphylococcus aureus), Gram-negative (Escherichia coli, Pseudomonas aeruginosa, Erwinia carotovora, Pseudomonas syringae pv. tabaci, Xanthomonas campestris pv. citri) and yeasts (Candida albicans, Cryptococcus neoformans), as previously reported. […] The full list of peptide MICs was published in an accompanying paper, and is available in the current publication as supplementary dataset (Supplementary dataset 01).
(§2) The determination of the minimum inhibitory concentration (MIC) of peptides was performed as described in “Encrypted Antimicrobial Peptides from Plant Proteins”[7]. Briefly, MICs were determined following protocols M7-A10 and M27-A3 from Clinical & Laboratory Standards Institute (CLSI) for bacteria and yeasts, respectively. Different concentrations of IAPs (0.5 to 256 μM) were tested against several microorganisms in a final volume of 100 µL. Three biological repetitions, with 2 technical replicates each, were performed for each test, on polystyrene flat-bottom 96 wells microplates. The minimum inhibitory concentration (MIC) was defined as the concentration at which no cells were detected when visualized by optical microscopy. Please refer to the literature[7] for further details of the microbiological assays.

[1] = test system: Pseudomonas syringae pv. tabaci; details: Pseudomonas syringae pv. tabaci; for Minimum inhibitory concentration, Average: average of triplicates
Experimental: as §1, §2

Erwinia carotovora = details: Erwinia carotovora; for Minimum inhibitory concentration, Average: average of triplicates
Experimental: as §1, §2

Escherichia coli = details: Escherichia coli; for Minimum inhibitory concentration, Average: average of triplicates
Experimental: as §1, §2

Bacillus cereus = test system: Bacillus cereus
Experimental: as §1, §2

Staphylococcus aureus = details: Staphylococcus aureus; for Minimum inhibitory concentration, Average: average of triplicates
Experimental: as §1, §2

Cryptococcus neoformans = details: Cryptococcus neoformans; for Minimum inhibitory concentration, Average: average of triplicates
Experimental: as §1, §2

Xanthomonas campestris = details: for Minimum inhibitory concentration, Average: average of triplicates
Experimental: as §1, §2

Bacillus subtilis = details: Bacillus subtilis; for Minimum inhibitory concentration, Average: average of triplicates
Experimental: as §1, §2

Candida albicans = details: Candida albicans; for Minimum inhibitory concentration, Average: average of triplicates
Experimental: as §1, §2

[2] = Pseudomonas aeruginosa, CLSI M7-A10, triplicate 1
[3] = Pseudomonas aeruginosa, average of triplicates
[4] = Pseudomonas aeruginosa, triplicate 2
[5] = Pseudomonas aeruginosa, triplicate 3
[6] = Bacillus cereus, CLSI M7-A10, triplicate 1
[7] = Bacillus cereus, average of triplicates
[8] = CLSI M27-A3, 0.5 to 256 μM tested, triplicate 1, also published in ref 7

Sequence | Minimum inhibitory concentration (Pseudomonas aeruginosa; [2]) | Minimum inhibitory concentration, Average (Pseudomonas aeruginosa; [3]) | Minimum inhibitory concentration (Pseudomonas aeruginosa; [4]) | Minimum inhibitory concentration (Pseudomonas aeruginosa; [5]) | Minimum inhibitory concentration ([1]; CLSI M7-A10, triplicate 1) | Minimum inhibitory concentration, Average [1] | Minimum inhibitory concentration ([1]; triplicate 2) | Minimum inhibitory concentration ([1]; triplicate 3) | Minimum inhibitory concentration (Escherichia coli; CLSI M7-A10, triplicate 1) | Minimum inhibitory concentration, Average (Escherichia coli) | Minimum inhibitory concentration (Escherichia coli; triplicate 2) | Minimum inhibitory concentration (Escherichia coli; triplicate 3) | Minimum inhibitory concentration (Staphylococcus aureus; CLSI M7-A10, triplicate 1) | Minimum inhibitory concentration, Average (Staphylococcus aureus) | Minimum inhibitory concentration (Staphylococcus aureus; triplicate 2) | Minimum inhibitory concentration (Staphylococcus aureus; triplicate 3) | Minimum inhibitory concentration (Candida albicans; [8]) | Minimum inhibitory concentration, Average (Candida albicans) | Minimum inhibitory concentration (Candida albicans; triplicate 2) | Minimum inhibitory concentration (Candida albicans; triplicate 3) | also measured
ANRLLEAYKMLLKFLGNLR [Gr02] | 32 µM | 32.0 µM | 32 µM | 32 µM | 2 µM | 2.0 µM | 2 µM | 2 µM | 4 µM | 4.0 µM | 4 µM | 4 µM | 1 µM | 1.0 µM | 1 µM | 1 µM | 4 µM | 4.0 µM | 4 µM | 4 µM | Minimum inhibitory concentration (Erwinia carotovora; CLSI M7-A10, triplicate 1): 1 µM; Minimum inhibitory concentration, Average (Erwinia carotovora): 1.0 µM; Minimum inhibitory concentration (Erwinia carotovora; triplicate 2): 1 µM; Minimum inhibitory concentration (Erwinia carotovora; triplicate 3): 1 µM; Minimum inhibitory concentration (Bacillus cereus; [6]): 4 µM; Minimum inhibitory concentration, Average (Bacillus cereus; [7]): 4.0 µM; Minimum inhibitory concentration (Bacillus cereus; Bacillus cereus, triplicate 2): 4 µM; Minimum inhibitory concentration (Bacillus cereus; Bacillus cereus, triplicate 3): 4 µM; Minimum inhibitory concentration (Cryptococcus neoformans; CLSI M27-A3, triplicate 1): 2 µM; Minimum inhibitory concentration, Average (Cryptococcus neoformans): 2.7 µM; Minimum inhibitory concentration (Cryptococcus neoformans; triplicate 2): 2 µM; Minimum inhibitory concentration (Cryptococcus neoformans; triplicate 3): 4 µM; Minimum inhibitory concentration (Xanthomonas campestris; CLSI M7-A10, triplicate 1): 4 µM; Minimum inhibitory concentration, Average (Xanthomonas campestris): 4.0 µM; Minimum inhibitory concentration (Xanthomonas campestris; triplicate 2): 4 µM; Minimum inhibitory concentration (Xanthomonas campestris; triplicate 3): 4 µM; Minimum inhibitory concentration (Bacillus subtilis; CLSI M7-A10, triplicate 1): 1 µM; Minimum inhibitory concentration, Average (Bacillus subtilis): 1.0 µM; Minimum inhibitory concentration (Bacillus subtilis; triplicate 2): 1 µM; Minimum inhibitory concentration (Bacillus subtilis; triplicate 3): 1 µM
FFGHIWHGARTLFRDVFA [Cs02] | 512 µM | 512.0 µM | 512 µM | 512 µM | 4 µM | 4.0 µM | 4 µM | 4 µM | 8 µM | 8.0 µM | 8 µM | 8 µM | 8 µM | 8.0 µM | 8 µM | 8 µM | 32 µM | 32.0 µM | 32 µM | 32 µM | Minimum inhibitory concentration (Erwinia carotovora; CLSI M7-A10, triplicate 1): 32 µM; Minimum inhibitory concentration, Average (Erwinia carotovora): 32.0 µM; Minimum inhibitory concentration (Erwinia carotovora; triplicate 2): 32 µM; Minimum inhibitory concentration (Erwinia carotovora; triplicate 3): 32 µM; Minimum inhibitory concentration (Bacillus cereus; [6]): 64 µM; Minimum inhibitory concentration, Average (Bacillus cereus; [7]): 64.0 µM; Minimum inhibitory concentration (Bacillus cereus; Bacillus cereus, triplicate 2): 64 µM; Minimum inhibitory concentration (Bacillus cereus; Bacillus cereus, triplicate 3): 64 µM; Minimum inhibitory concentration (Cryptococcus neoformans; CLSI M27-A3, triplicate 1): 32 µM; Minimum inhibitory concentration, Average (Cryptococcus neoformans): 32.0 µM; Minimum inhibitory concentration (Cryptococcus neoformans; triplicate 2): 32 µM; Minimum inhibitory concentration (Cryptococcus neoformans; triplicate 3): 32 µM; Minimum inhibitory concentration (Xanthomonas campestris; CLSI M7-A10, triplicate 1): 32 µM; Minimum inhibitory concentration, Average (Xanthomonas campestris): 32.0 µM; Minimum inhibitory concentration (Xanthomonas campestris; triplicate 2): 32 µM; Minimum inhibitory concentration (Xanthomonas campestris; triplicate 3): 32 µM; Minimum inhibitory concentration (Bacillus subtilis; CLSI M7-A10, triplicate 1): 2 µM; Minimum inhibitory concentration, Average (Bacillus subtilis): 3.3 µM; Minimum inhibitory concentration (Bacillus subtilis; triplicate 2): 4 µM; Minimum inhibitory concentration (Bacillus subtilis; triplicate 3): 4 µM
FFYNVIKIYGNMAGRISK [Cs03] |  |  |  |  | 128 µM | 128.0 µM | 128 µM | 128 µM | 128 µM | 128.0 µM | 128 µM | 128 µM | 128 µM | 128.0 µM | 128 µM | 128 µM | 128 µM | 128.0 µM | 128 µM | 128 µM | Minimum inhibitory concentration (Pseudomonas aeruginosa): 512 µM; Minimum inhibitory concentration, Average (Pseudomonas aeruginosa): 512.0 µM; Minimum inhibitory concentration (Erwinia carotovora; CLSI M7-A10, triplicate 1): 16 µM; Minimum inhibitory concentration, Average (Erwinia carotovora): 16.0 µM; Minimum inhibitory concentration (Erwinia carotovora; triplicate 2): 16 µM; Minimum inhibitory concentration (Erwinia carotovora; triplicate 3): 16 µM; Minimum inhibitory concentration (Bacillus cereus): 512 µM; Minimum inhibitory concentration, Average (Bacillus cereus): 512.0 µM; Minimum inhibitory concentration (Cryptococcus neoformans; CLSI M27-A3, triplicate 1): 32 µM; Minimum inhibitory concentration, Average (Cryptococcus neoformans): 32.0 µM; Minimum inhibitory concentration (Cryptococcus neoformans; triplicate 2): 32 µM; Minimum inhibitory concentration (Cryptococcus neoformans; triplicate 3): 32 µM; Minimum inhibitory concentration (Xanthomonas campestris; CLSI M7-A10, triplicate 1): 512 µM; Minimum inhibitory concentration, Average (Xanthomonas campestris): 512.0 µM; Minimum inhibitory concentration (Xanthomonas campestris; triplicate 2): 512 µM; Minimum inhibitory concentration (Xanthomonas campestris; triplicate 3): 512 µM; Minimum inhibitory concentration (Bacillus subtilis; CLSI M7-A10, triplicate 1): 64 µM; Minimum inhibitory concentration, Average (Bacillus subtilis): 64.0 µM; Minimum inhibitory concentration (Bacillus subtilis; triplicate 2): 64 µM; Minimum inhibitory concentration (Bacillus subtilis; triplicate 3): 64 µM
FLSLIPHAINAVSTLVHHF [PS-2, reference compound] | 512 µM | 512.0 µM | 512 µM | 512 µM |  |  |  |  | 8 µM | 8.0 µM | 8 µM | 8 µM | 8 µM | 8.0 µM | 8 µM | 8 µM | 32 µM | 32.0 µM | 32 µM | 32 µM | 
GIGDILKNLAKAAGKAALHAVGESL [HSP-4, Hylaseptin-4, reference compound] | 16 µM | 16.0 µM | 16 µM | 16 µM |  |  |  |  | 8 µM | 8.0 µM | 8 µM | 8 µM | 8 µM | 8.0 µM | 8 µM | 8 µM | 8 µM | 8.0 µM | 8 µM | 8 µM | 
GIGKFLHSAKKFGKAFVGEIMNS [Mag-2a, Magainin-2a, reference compound] | 512 µM | 512.0 µM | 512 µM | 512 µM |  |  |  |  | 8 µM | 8.0 µM | 8 µM | 8 µM | 512 µM | 512.0 µM | 512 µM | 512 µM | 64 µM | 64.0 µM | 64 µM | 64 µM | 
GLKDMIKNLAKEAAVKLAGAVINKFSPQPQ [Nat-1, Nattererin-1, reference compound] | 32 µM | 32.0 µM | 32 µM | 32 µM |  |  |  |  | 8 µM | 8.0 µM | 8 µM | 8 µM | 16 µM | 26.7 µM | 32 µM | 32 µM | 16 µM | 16.0 µM | 16 µM | 16 µM | 
